Our source for the IC50 and MIC values is ChEMBL document CHEMBL2010682, “Asperolides A-C, tetranorlabdane diterpenoids from the marine alga-derived endophytic fungus Aspergillus wentii EN-48” (J Nat Prod, 2012).

In brackets after ≈: the same amount, converted by molar mass. Activity calls are given as the source filed them. The rule behind the calls is not given here.

The subject of one assay is MDA-MB-231. The assay is described as follows: Cytotoxicity against human MDA-MB-231 cells. The assay is classed as functional, cell-based.
The subject of the next assay is HeLa. The assay is described as follows: Cytotoxicity against human HeLa cells. Format: functional, cell-based.
A further assay concerns SW1990. The assay is described as follows: Cytotoxicity against human SW1990 cells. Format: functional, cell-based.
The next assay deals with SMMC-7721. The assay is described as follows: Cytotoxicity against human SMMC7721 cells. The assay is classed as functional, cell-based.
The next assay deals with HepG2. The assay is described as follows: Cytotoxicity against human HepG2 cells. Format: functional, cell-based.
The test system of the next assay is NCI-H460. The assay is described as follows: Cytotoxicity against human NCI-H460 cells. Format: functional, cell-based.
The subject of the next assay is Staphylococcus aureus. The assay is described as follows: Antibacterial activity against methicillin-resistant Staphylococcus aureus after 18 hrs by broth microdilution method. The assay is classed as functional.
A further assay deals with Pseudomonas fluorescens. The assay is described as follows: Antibacterial activity against Pseudomonas fluorescens after 18 hrs by broth microdilution method. The assay is classed as functional.
For assay [1], the system named is Staphylococcus epidermidis. The assay is described as follows: Antibacterial activity against Staphylococcus epidermidis after 18 hrs by broth microdilution method. The assay is classed as functional.
In another assay the test system is Pseudomonas aeruginosa. The assay is described as follows: Antibacterial activity against Pseudomonas aeruginosa after 18 hrs by broth microdilution method. The assay is classed as functional.
The next assay has as its system MCF7. The assay is described as follows: Cytotoxicity against human MCF7 cells. The assay is classed as functional, cell-based.
The next assay has as its system Candida albicans. The assay is described as follows: Antifungal activity against Candida albicans after 18 hrs by broth microdilution method. Format: functional.
[2] abbreviates: Homo sapiens, MDA-MB-231, read-out: IC50.
The mark [3] stands for this setting: Homo sapiens, HeLa, read-out: IC50.
Setting [4] is: Homo sapiens, SW1990, read-out: IC50.
The mark [5] stands for this setting: Homo sapiens, SMMC-7721, read-out: IC50.
Setting [6] is: Homo sapiens, HepG2, read-out: IC50.
Where [7] appears, read: Homo sapiens, NCI-H460, read-out: IC50.
Where [8] appears, read: Homo sapiens, MCF7, read-out: IC50.

For the molecule `O=c1[nH]cc(F)c(=O)[nH]1` [FLUOROURACIL], the half-maximal inhibitory concentration (IC50) with MDA-MB-231 (setting [2]) amounted to 62 µM; with HeLa (setting [3]), 108 µM; with SW1990 (setting [4]), 123 µM; in the assay with SMMC-7721 (setting [5]), 15 µM; in the assay with HepG2 (setting [6]), 108 µM; in the assay on NCI-H460 (setting [7]) it was 8 µM.

Consider `CC1(C)S[C@@H]2[C@H](NC(=O)[C@H](N)c3ccccc3)C(=O)N2[C@H]1C(=O)O` [AMPICILLIN], for which the minimum inhibitory concentration (MIC) in the assay with Staphylococcus aureus worked out at 8 µg/mL (≈ 22.9 µM); with Pseudomonas fluorescens, 2 µg/mL (≈ 5.72 µM); in assay [1], 4 µg/mL (≈ 11.4 µM); in the assay on Pseudomonas aeruginosa, 4 µg/mL (≈ 11.4 µM).

In the case of `C=C1[C@@H](O)C[C@@H]2[C@](C)(CCC[C@]2(C)C(=O)O)[C@H]1CC(=O)O`, the half-inhibitory concentration (IC50) result in the assay on MDA-MB-231 (mda-mb-231), with HeLa (hela), with SW1990 (sw1990), with MCF7 (mcf7), with SMMC-7721 (smmc-7721) and with HepG2 (hepg2) was “Not Active” throughout. The IC50 result in the assay on NCI-H460 (nci-h460) is recorded as “Not Active”. For the same molecule, in the assay with Candida albicans, the MIC result was “inactive”.

As for `C[C@@]12C[C@@H](O)C[C@]3(C)C4=CC(=O)OCC4=C[C@@H](OC1=O)[C@@H]23` [WENTILACTONE B], the IC50 with HeLa (setting [3]) was determined as 42 µM; with SW1990 (setting [4]) it was 24 µM; in the assay on MCF7 (setting [8]), 56 µM; in the assay on SMMC-7721 (setting [5]) it was 17 µM; with HepG2 (setting [6]), 38 µM; in the assay on NCI-H460 (setting [7]), 24 µM. The MIC entry in the assay on Candida albicans is “inactive”.

As for `C[C@]12C(=O)O[C@@H]3C=C4COC(=O)C=C4[C@@](C)(C=C[C@@H]1O)[C@@H]32`, the half-inhibitory concentration (IC50) with MDA-MB-231 (setting [2]) is 42 µM; with HeLa (setting [3]), 63 µM; with SW1990 (setting [4]) it was 63 µM; with MCF7 (setting [8]), 38 µM; in the assay on HepG2 (hepg2), “Not Active”; with NCI-H460 (setting [7]), 42 µM. It took 16 µg/mL (≈ 55.5 µM) to inhibit growth with Candida albicans (MIC).

Turning to `C[C@]12C3=CC(=O)OCC3=C[C@H]3OC(=O)[C@@](C)(C=C[C@H]1O)[C@H]32` [ASPEROLIDE A], the 50% inhibitory concentration (IC50) in the assay on HeLa (setting [3]) is 97 µM; in the assay on SW1990 (setting [4]), 69 µM; with MCF7 (mcf7), “Not Active”; with SMMC-7721 (setting [5]), 52 µM; in the assay with HepG2 (setting [6]), 63 µM; with NCI-H460 (setting [7]), 42 µM. Moreover, in the assay on Candida albicans, the MIC entry was “inactive”.

NYSTATIN gave an MIC in the assay with Candida albicans of 2 µg/mL.

Take `C[C@@]12C3=CC(=O)OCC3=C[C@H]3OC(=O)[C@](C)([C@H]31)[C@H]1O[C@H]1[C@H]2O` [ASPEROLIDE B]: the half-maximal inhibitory concentration (IC50) in the assay with MDA-MB-231 (setting [2]) was 35 µM; with HeLa (setting [3]), 56 µM; in the assay on SW1990 (setting [4]) it was 69 µM; in the assay with MCF7 (setting [8]) it was 63 µM; in the assay on HepG2 (hepg2) it was “Not Active”; in the assay with NCI-H460 (setting [7]), 63 µM.

On to `C[C@@]12C3=CC(=O)OCC3=C[C@H]3OC(=O)[C@](C)([C@H]31)[C@@H](O)[C@H]1O[C@H]12` [WENTILACTONE A], for which the IC50 with HeLa (setting [3]) turned out to be 52 µM; with SW1990 (setting [4]), 42 µM; in the assay on MCF7 (setting [8]), 69 µM; in the assay on SMMC-7721 (setting [5]), 28 µM; with HepG2 (setting [6]), 35 µM; in the assay with NCI-H460 (setting [7]), 28 µM. For the same molecule, the MIC entry with Candida albicans was “inactive”.

For the molecule `COc1cccc2c1C(=O)c1c(O)c3c(c(O)c1C2=O)C[C@@](O)(C(=O)CO)C[C@@H]3O[C@H]1C[C@H](N)[C@H](O)[C@H](C)O1` [DOXORUBICIN], the IC50 in the assay on MDA-MB-231 (setting [2]) was 4 µM; in the assay on HeLa (setting [3]), 5 µM; in the assay with MCF7 (setting [8]), 7 µM; in the assay on SMMC-7721 (setting [5]), 172 µM; with HepG2 (setting [6]), 7 µM.
